What was measured:
[1] = target: T1, Angiotensin-converting enzyme (Homo sapiens, UniProt P12821); test: Inhibition of ACE
[2] = target: T1, Angiotensin-converting enzyme; test: Inhibition of ACE at 100 uM
[3] = target: T1, Angiotensin-converting enzyme; test: Inhibition of ACE at 200 uM
[4] = target: T1, Angiotensin-converting enzyme; test: Inhibition of ACE at 400 uM
[5] = target: T1, Angiotensin-converting enzyme; test: Inhibition of ACE by Lineweaver-Burke plot
[6] = tested on: Rattus norvegicus; test: Antihypertensive activity in spontaneously hypertensive rat assessed as inhibition of angiotensin 1-induced vasopressive response at 20 mg/kg, iv after 10 mins; assay type: functional
[7] = tested on: Rattus norvegicus; test: Antihypertensive activity in spontaneously hypertensive rat assessed as inhibition of angiotensin 1-induced vasopressive response at 40 mg/kg, iv after 10 mins; assay type: functional
[8] = tested on: Rattus norvegicus; test: Antihypertensive activity in spontaneously hypertensive rat assessed as inhibition of angiotensin 1-induced vasopressive response at 80 mg/kg, iv after 10 mins; assay type: functional
[9] = tested on: Rattus norvegicus; test: Antihypertensive activity in spontaneously hypertensive rat assessed as inhibition of angiotensin 1-induced vasopressive response at 20 mg/kg, iv after 20 mins; assay type: functional
[10] = tested on: Rattus norvegicus; test: Antihypertensive activity in spontaneously hypertensive rat assessed as inhibition of angiotensin 1-induced vasopressive response at 40 mg/kg, iv after 20 mins; assay type: functional
[11] = tested on: Rattus norvegicus; test: Antihypertensive activity in spontaneously hypertensive rat assessed as inhibition of angiotensin 1-induced vasopressive response at 80 mg/kg, iv after 20 mins; assay type: functional
[12] = tested on: Rattus norvegicus; test: Antihypertensive activity in spontaneously hypertensive rat assessed as inhibition of angiotensin 1-induced vasopressive response at 20 mg/kg, iv after 30 mins; assay type: functional; details: 0.5 h
[13] = tested on: Rattus norvegicus; test: Antihypertensive activity in spontaneously hypertensive rat assessed as inhibition of angiotensin 1-induced vasopressive response at 40 mg/kg, iv after 30 mins; assay type: functional; details: 0.5 h
[14] = tested on: Rattus norvegicus; test: Antihypertensive activity in spontaneously hypertensive rat assessed as inhibition of angiotensin 1-induced vasopressive response at 80 mg/kg, iv after 30 mins; assay type: functional; details: 0.5 h
[15] = tested on: Rattus norvegicus; test: Antihypertensive activity in spontaneously hypertensive rat assessed as inhibition of angiotensin 1-induced vasopressive response at 0.04 mg/kg, iv after 10 mins; assay type: functional
[16] = tested on: Rattus norvegicus; test: Antihypertensive activity in spontaneously hypertensive rat assessed as inhibition of angiotensin 1-induced vasopressive response at 0.4 mg/kg, iv after 10 mins; assay type: functional
[17] = tested on: Rattus norvegicus; test: Antihypertensive activity in spontaneously hypertensive rat assessed as inhibition of angiotensin 1-induced vasopressive response at 0.04 mg/kg, iv after 20 mins; assay type: functional
[18] = tested on: Rattus norvegicus; test: Antihypertensive activity in spontaneously hypertensive rat assessed as inhibition of angiotensin 1-induced vasopressive response at 0.4 mg/kg, iv after 20 mins; assay type: functional
[19] = tested on: Rattus norvegicus; test: Antihypertensive activity in spontaneously hypertensive rat assessed as inhibition of angiotensin 1-induced vasopressive response at 0.04 mg/kg, iv after 30 mins; assay type: functional; details: 0.5 h
[20] = tested on: Rattus norvegicus; test: Antihypertensive activity in spontaneously hypertensive rat assessed as inhibition of angiotensin 1-induced vasopressive response at 0.4 mg/kg, iv after 30 mins; assay type: functional; details: 0.5 h

T1 sequence (P12821 whole entry): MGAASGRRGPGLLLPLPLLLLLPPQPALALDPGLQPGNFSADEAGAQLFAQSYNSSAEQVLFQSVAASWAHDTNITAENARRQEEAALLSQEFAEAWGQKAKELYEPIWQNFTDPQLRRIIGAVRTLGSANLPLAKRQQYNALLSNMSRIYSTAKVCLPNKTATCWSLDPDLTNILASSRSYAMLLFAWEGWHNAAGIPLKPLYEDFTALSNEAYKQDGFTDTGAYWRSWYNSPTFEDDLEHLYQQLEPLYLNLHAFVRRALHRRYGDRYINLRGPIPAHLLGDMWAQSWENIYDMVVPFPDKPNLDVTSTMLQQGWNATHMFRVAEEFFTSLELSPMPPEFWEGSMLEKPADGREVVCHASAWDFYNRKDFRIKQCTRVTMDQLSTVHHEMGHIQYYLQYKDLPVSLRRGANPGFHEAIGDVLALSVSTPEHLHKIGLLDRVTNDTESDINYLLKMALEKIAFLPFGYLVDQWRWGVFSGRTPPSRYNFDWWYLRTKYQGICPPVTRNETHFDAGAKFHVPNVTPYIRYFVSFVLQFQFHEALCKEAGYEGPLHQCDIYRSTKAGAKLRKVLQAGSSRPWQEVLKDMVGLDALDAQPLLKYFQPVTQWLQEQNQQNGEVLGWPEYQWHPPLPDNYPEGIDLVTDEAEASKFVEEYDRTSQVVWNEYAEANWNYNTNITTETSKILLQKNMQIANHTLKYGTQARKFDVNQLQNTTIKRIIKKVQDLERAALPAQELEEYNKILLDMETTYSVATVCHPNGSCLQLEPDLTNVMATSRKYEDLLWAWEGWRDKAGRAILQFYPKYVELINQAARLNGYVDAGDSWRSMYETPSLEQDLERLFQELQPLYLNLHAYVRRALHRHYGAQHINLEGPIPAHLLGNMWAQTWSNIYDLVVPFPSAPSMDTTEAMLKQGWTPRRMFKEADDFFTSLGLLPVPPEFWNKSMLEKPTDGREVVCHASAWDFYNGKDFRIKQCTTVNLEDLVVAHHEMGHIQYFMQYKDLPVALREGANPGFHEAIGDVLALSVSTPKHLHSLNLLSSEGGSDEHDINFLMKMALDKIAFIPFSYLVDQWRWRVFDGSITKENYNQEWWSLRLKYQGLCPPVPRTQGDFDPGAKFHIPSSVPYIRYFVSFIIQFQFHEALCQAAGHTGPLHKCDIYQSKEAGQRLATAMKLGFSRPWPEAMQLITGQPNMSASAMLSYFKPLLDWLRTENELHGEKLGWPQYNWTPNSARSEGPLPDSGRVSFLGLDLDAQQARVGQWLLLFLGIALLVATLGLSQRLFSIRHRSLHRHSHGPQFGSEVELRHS

| SMILES | IC50 [1] [µM] | inhibition [2] [%] | inhibition [3] [%] | inhibition [4] [%] | Ki [5] [µM] | further results |
| --- | --- | --- | --- | --- | --- | --- |
| O=c1c2cc(O)c(O)cc2oc2cc(O)cc(O)c12 | 531 | 15.5 | 23.5 | 40.3 | 250 | – |
| CC(=O)Oc1cc2oc3c(OC(C)=O)c(OC(C)=O)ccc3c(=O)c2cc1OC(C)=O | – | 9.82 | – | – | – | – |
| CC(=O)Oc1cc(OC(C)=O)c2c(=O)c3cc(OC(C)=O)c(OC(C)=O)cc3oc2c1 | – | < 1 | – | – | – | – |
| CC(=O)Oc1cc2oc3cc(OC(C)=O)c(OC(C)=O)cc3c(=O)c2cc1OC(C)=O | – | < 1 | – | – | – | – |
| CC(=O)Oc1cc(OC(C)=O)c2c(=O)c3ccc(OC(C)=O)c(OC(C)=O)c3oc2c1 | – | < 1 | – | – | – | – |
| O=c1c2cc(O)c(O)cc2oc2c(O)c(O)ccc12 | – | 83.1 | 90 | 95 | 14.2 | inhibition in vivo at 20 mg/kg [6]: 33.8%; inhibition in vivo at 40 mg/kg [7]: 47.8%; inhibition in vivo at 80 mg/kg [8]: 52.7%; inhibition in vivo at 20 mg/kg [9]: 5.9%; inhibition in vivo at 40 mg/kg [10]: 30.8%; inhibition in vivo at 80 mg/kg [11]: 32.5%; inhibition in vivo at 20 mg/kg [12]: 0%; inhibition in vivo at 40 mg/kg [13]: 10%; inhibition in vivo at 80 mg/kg [14]: 13% |
| CC(=O)Oc1ccc2c(=O)c3ccc(OC(C)=O)c(OC(C)=O)c3oc2c1OC(C)=O | – | 7 | – | – | – | – |
| O=c1c2cc(O)c(O)cc2oc2cc(O)c(O)cc12 | > 769 | 11.7 | 17.2 | 26.8 | – | – |
| O=c1c2ccc(O)c(O)c2oc2cc(O)cc(O)c12 | 69.2 | 56.4 | 67.7 | 75.3 | 34.2 | – |
| C[C@H](CS)C(=O)N1CCC[C@H]1C(=O)O [CAPTOPRIL] | – | – | – | – | – | inhibition in vivo at 0.04 mg/kg [15]: 10%; inhibition in vivo at 0.4 mg/kg [16]: 78.5%; inhibition in vivo at 0.04 mg/kg [17]: 0%; inhibition in vivo at 0.4 mg/kg [18]: 66.6%; inhibition in vivo at 0.04 mg/kg [19]: 0%; inhibition in vivo at 0.4 mg/kg [20]: 45.5% |
| O=c1c2ccc(O)c(O)c2oc2c(O)c(O)ccc12 | 239 | 34.3 | 46.2 | 55.5 | 126 | – |

Reference: ChEMBL document CHEMBL1159033, “Inhibition of angiotensin-I-converting enzyme by tetrahydroxyxanthones isolated from Tripterospermum lanceolatum” (J Nat Prod, 1992)
